Measured values as given in ChEMBL document CHEMBL1129456, “Synthesis and evaluation of two positron-labeled nitric oxide synthase inhibitors, S-[11C]methylisothiourea and S-(2-[18F]fluoroethyl)isothiourea, as potential positron emission tomography tracers” (J Med Chem, 1996).
pIC50: −log10 of the molar value.

Tests used:
[1] = Partition coefficient measured by octanol/water extraction at pH 6.8; type: physicochemical
Nitric oxide synthase 3 = target: T1, Nitric oxide synthase 3 (Homo sapiens, UniProt P29474); test: The compound was evaluated for the inhibitory potencies using human Endothelial nitric oxide synthase
T1 sequence (P29474 whole entry): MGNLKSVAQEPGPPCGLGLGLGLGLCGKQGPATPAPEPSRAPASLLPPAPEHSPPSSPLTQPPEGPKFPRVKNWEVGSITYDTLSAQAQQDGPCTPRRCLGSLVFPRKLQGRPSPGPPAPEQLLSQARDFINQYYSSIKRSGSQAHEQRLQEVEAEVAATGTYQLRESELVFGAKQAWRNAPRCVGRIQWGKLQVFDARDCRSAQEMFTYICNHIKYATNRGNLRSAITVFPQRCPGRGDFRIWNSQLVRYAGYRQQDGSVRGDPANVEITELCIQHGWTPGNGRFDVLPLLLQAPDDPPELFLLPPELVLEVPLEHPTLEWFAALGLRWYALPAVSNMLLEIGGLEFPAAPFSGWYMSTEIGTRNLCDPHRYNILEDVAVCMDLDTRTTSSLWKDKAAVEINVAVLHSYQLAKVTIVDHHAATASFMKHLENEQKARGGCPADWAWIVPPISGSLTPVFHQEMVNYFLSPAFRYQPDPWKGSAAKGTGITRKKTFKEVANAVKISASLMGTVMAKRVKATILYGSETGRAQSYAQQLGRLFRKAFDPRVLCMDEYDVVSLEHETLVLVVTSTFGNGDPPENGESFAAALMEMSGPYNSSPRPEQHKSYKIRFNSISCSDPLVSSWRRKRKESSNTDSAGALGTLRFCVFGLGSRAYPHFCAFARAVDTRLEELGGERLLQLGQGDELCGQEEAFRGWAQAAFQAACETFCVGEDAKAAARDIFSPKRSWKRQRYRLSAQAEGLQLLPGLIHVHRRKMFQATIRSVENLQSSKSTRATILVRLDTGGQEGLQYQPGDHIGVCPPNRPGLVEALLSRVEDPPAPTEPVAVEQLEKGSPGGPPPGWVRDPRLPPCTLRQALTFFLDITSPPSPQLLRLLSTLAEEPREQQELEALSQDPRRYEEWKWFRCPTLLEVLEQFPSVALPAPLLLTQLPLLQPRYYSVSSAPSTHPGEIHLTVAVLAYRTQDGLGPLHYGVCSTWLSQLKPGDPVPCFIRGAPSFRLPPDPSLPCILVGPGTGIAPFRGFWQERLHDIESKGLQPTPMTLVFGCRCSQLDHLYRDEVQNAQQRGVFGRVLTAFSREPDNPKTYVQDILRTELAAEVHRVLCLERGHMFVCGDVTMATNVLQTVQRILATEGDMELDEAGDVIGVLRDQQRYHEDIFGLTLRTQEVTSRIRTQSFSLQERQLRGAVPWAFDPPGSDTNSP

[2] = target: Nitric oxide synthase, inducible (Homo sapiens, UniProt P35228); test: The compound was evaluated for the inhibitory potencies using human Inducible nitric oxide synthase (hiNOS)
Nitric oxide synthase, inducible, sequence (P35228 whole entry): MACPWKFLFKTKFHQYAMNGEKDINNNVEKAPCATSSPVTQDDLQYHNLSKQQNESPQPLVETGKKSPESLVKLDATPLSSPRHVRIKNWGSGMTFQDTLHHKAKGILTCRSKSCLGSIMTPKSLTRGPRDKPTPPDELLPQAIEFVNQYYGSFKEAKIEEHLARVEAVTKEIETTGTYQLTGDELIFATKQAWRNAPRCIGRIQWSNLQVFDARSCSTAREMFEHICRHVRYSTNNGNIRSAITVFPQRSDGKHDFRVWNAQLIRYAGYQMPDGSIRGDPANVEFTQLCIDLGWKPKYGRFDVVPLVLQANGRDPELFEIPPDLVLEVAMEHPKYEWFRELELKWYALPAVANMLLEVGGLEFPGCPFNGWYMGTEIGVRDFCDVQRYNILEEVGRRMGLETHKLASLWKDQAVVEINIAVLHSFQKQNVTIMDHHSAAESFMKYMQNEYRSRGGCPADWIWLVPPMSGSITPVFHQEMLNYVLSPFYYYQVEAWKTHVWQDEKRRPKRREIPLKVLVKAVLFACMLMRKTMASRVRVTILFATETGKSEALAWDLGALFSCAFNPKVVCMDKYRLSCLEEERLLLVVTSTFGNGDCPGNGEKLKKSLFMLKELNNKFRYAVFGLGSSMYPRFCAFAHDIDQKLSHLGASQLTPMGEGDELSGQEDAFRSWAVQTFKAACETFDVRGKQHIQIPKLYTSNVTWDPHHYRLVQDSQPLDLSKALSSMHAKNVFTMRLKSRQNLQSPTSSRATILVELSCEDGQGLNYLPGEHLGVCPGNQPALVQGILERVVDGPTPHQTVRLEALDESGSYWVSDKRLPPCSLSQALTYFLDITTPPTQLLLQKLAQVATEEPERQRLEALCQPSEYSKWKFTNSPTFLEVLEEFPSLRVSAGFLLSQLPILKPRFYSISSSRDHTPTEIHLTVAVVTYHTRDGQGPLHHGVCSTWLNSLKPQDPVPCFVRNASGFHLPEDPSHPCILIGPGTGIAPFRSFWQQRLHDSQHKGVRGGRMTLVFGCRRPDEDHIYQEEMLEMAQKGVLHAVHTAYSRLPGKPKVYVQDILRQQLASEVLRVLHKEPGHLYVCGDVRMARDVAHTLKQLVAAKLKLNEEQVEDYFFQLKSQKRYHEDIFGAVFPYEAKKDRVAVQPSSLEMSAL

| logD [1] | Structure (SMILES) | pIC50 (Nitric oxide synthase 3) | pIC50 [2] |
| --- | --- | --- | --- |
| -0.04 | [11CH3]SC(=N)N | – | – |
| – | CSC(=N)N | 5.15 | 5.52 |
| – | N=C(N)SCCF | 5.90 | 6.85 |
